Assay [1] relates to mutant BDNF gene-knockin mice. As to the kind of experiment: Open field (circular field) quantity of activity after etizolam, mutant mice. Format: in vivo, mouse. Particulars: mutant mice aged 4 to 5 weeks; etizolam solution 0.5 mg/kg intraperitoneally; measured from 5 minutes after administration; p<0.001. The protocol:
(§1) The abnormal behavior in the mutant BDNF gene-knockin mouse was quantitatively analyzed. An emotional change of the mouse is reflected to the quantity of activity and a behavioral pattern of the mouse when the mouse is placed in a novel environment. The mouse was placed in the novel environment which was an inexperienced circular field (a diameter of 50 cm and a wall height of 40 cm in the field) for 25 to 30 minutes, and the quantity of activity in the meantime was compared between the wild type homozygous mice (wild) and the knockin homozygous mice (mutants). The mouse was placed 30 minutes before the experiment in a room in which the circular field had been disposed, and placed calmly in the circular field using a paper box. The activity of the mouse in the circular field was measured by recording using DV-Track video tracking system supplied from Muromachi Kikai.
(§2) Etizolam is a short term action type GABA, a neurotransmission accelerator (reference: Elder C. A. et al.: Drug Metab. Dispos., vol. 23, 776, 1995). […] A protocol was comprising (I) measuring the total quantity of activity in the mouse for 30 minutes after being placed in the open field, (II) intraperitoneally administering PBS or the etizolam solution (0.5 mg/kg) and (III) returning the mouse in the open field after 5 minutes and measuring the quantity of activity for 30 minutes in the mouse. […]

The test system of assay [2] is wild type mice. As to the kind of experiment: Open field (circular field) quantity of activity after etizolam, wild type mice. Format: in vivo, mouse. To be noted: wild type mice aged 4 to 5 weeks; etizolam solution 0.5 mg/kg intraperitoneally; measured from 5 minutes after administration; p<0.05. As for the experimental part: as §1, §2
In assay [3] the test system is cerebellar granular nerve cells. As to the kind of experiment: Harmful action of non-cleavable proBDNF derivative on cerebellar granular nerve cells. It counts as cell-based.
Assay [4] concerns cholinergic nerve cells. The assay can be described thus: Harmful action of non-cleavable proBDNF derivative on cholinergic nerve cells. It counts as cell-based.

“Also recorded” adds a separate entry of the source.

As for `CCc1cc2c(s1)-n1c(C)nnc1CN=C2c1ccccc1Cl` [etizolam], the “effect on abnormal behavior (total behavioral distance / quantity of activity for 30 minutes in the open field)” value in assay [1] is listed as “inhibitory effect; also recorded: remarkably inhibited”. The “effect on quantity of activity for 30 minutes in the open field” value in assay [2] is “certainly effective”.

B1: BDNF-ML: non-cleavable human proBDNF derivative protein with R125M and R127L, SEQ ID NO:2 (protein)
chain: MTILFLTMVISYFGCMKAAPMKEANIRGQGGLAYPGVRTHGTLESVNGPKAGSRGLTSLADTFEHVIEELLDEDQKVRPNEENNKDADLYTSRVMLSSQVPLEPPLLFLLEEYKNYLDAANMSMMVLRHSDPARRGELSVCDSISEWVTAADKKTAVDMSGGTVTVLEKVPVSKGQLKQYFYETKCNPMGYTKEGCRGIDKRHWNSQCRTTQSYVRALTMDSKKRIGWRFIRIDTSCVCTLTIKRGR
modifications: Non-cleavable human proBDNF mutant
Turning to B1, the “action on cell death of cerebellar granular nerve cells” value in assay [3] is “facilitation of cell death”. Further, the “action on fibers in cholinergic nerve cells” value in assay [4] was “facilitation of dropout of fibers”.

The values are drawn from US20070186301A1, “Mutant BDNF gene introducing knockin mouse” (NATIONAL INSTITUTE OF ADVANCED INDUSTRIAL SCIENCE AND …, priority 2006, published 2007).
